The structures appear in SMILES notation.

The target of this assay is wt human LRRK2, catalytic site (Homo sapiens (Human), UniProt Q5S007). The assay can be described thus: TR-FRET LanthaScreen Tb Kinase Activity Assay (LRRK2 kinase inhibition). The note with it: 2 nM wt human LRRK2, 400 nM fluorescein-ERM (LRRKtide) peptide, 38 μM ATP, 120 minutes at room temperature. It is filed as biochemical. The procedure, abridged: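 LanthaScreen TR-FRET with 2 nM wt human LRRK2 catalytic site, 400 nM fluorescein-ERM (LRRKtide) peptide and 38 µM ATP in Kinase Buffer A; 120 min at room temperature. Phosphorylation detected with EDTA and Tb-anti-pLRRKtide after 60 min; IC50 from emission ratios.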
Chain of wt human LRRK2, catalytic site (Q5S007 1879-2138): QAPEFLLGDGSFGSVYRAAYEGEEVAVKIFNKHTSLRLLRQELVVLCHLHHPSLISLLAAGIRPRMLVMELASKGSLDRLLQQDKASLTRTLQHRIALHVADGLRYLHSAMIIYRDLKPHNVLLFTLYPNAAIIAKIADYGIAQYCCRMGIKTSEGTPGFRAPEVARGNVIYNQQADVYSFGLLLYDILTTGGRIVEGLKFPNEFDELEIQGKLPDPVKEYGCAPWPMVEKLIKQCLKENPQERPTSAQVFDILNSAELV
In general terms: TR-FRET usually uses a lanthanide donor and a delayed reading to cut background.

With `CNc1nc(Nc2c(OC)ccc3c2cnn3C)ncc1C(F)(F)F` [Example 37, N2-(5-methoxy-1-methyl-1H-indazol-4-yl)-N4-methyl-5-(trifluoromethyl) pyrimidine-2,4-diamine], the IC50 (as a rule, the midpoint of a concentration-inhibition curve) was less than 50 nM.
Next, `CNc1nc(Nc2cc(/C=C/C(=O)N3CCOCC3)cc3[nH]ncc23)ncc1C(F)(F)F` [Example 52]: less than 50 nM.
With `CNc1nc(Nc2cccc3c2cnn3CCC(=O)N2CCOCC2)ncc1C(F)(F)F` [Example 77, 3-(4-((4-(methylamino)-5-(trifluoromethyl)pyrimidin-2-yl)amino)-1H-indazol-1-yl)-1-morpholinopropan-1-one] the figure was less than 50 nM; with `CC(C)Nc1nc(Nc2cccc3c2cnn3C(C)(C)C#N)ncc1C(F)(F)F` [Example 108, 2-(4-((4-(isopropylamino)-5-(trifluoromethyl)pyrimidin-2-yl)amino)-1H-indazol-1-yl)-2-methylpropanenitrile], less than 50 nM; with `CNc1nc(Nc2ccc(OC)c3nn(C)cc23)ncc1C(F)(F)F` [Example 35, N2-(7-methoxy-2-methyl-2H-indazol-4-yl)-N4-methyl-5-(trifluoromethyl) pyrimidine-2,4-diamine], less than 50 nM.
With `CNc1nc(Nc2cc3[nH]ncc3cc2F)ncc1C(F)(F)F` [Example 114, N^2-(5-fluoro-1H-indazol-6-yl)-N^4-methyl-5-(trifluoromethyl)pyrimidine-2,4-diamine] the figure was less than 50 nM; with `CNc1nc(Nc2ccc(CCC(=O)N3CCOCC3)c3[nH]ncc23)ncc1C(F)(F)F` [Example 57, 3-(4-((4-(methylamino)-5-(trifluoromethyl)pyrimidin-2-yl)amino)-1H-indazol-7-yl)-1-morpholinopropan-1-one], less than 50 nM; with `FC(F)(F)c1cnc(Nc2cccc3c2cnn3CCN2CCOCC2)nc1NC1CC1` [Example 193, N^4-cyclopropyl-N^2-(1-(2-morpholinoethyl)-1H-indazol-4-yl)-5-(trifluoromethyl)pyrimidine-2,4-diamine], less than 50 nM.
`CNc1nc(Nc2c(OC)ccc3nn(C)cc23)ncc1C(F)(F)F` [Example 40, N2-(5-methoxy-2-methyl-2H-indazol-4-yl)-N-methyl-5-(trifluoromethyl) pyrimidine-2,4-diamine] gave a concentration for half-maximal inhibition (IC50) of no less than 200 nM.
Next, `CCNc1nc(Nc2cccc3c2cnn3CC(F)F)nc2[nH]cc(Cl)c12` [Example 147, 5-chloro-N^2-(1-(2,2-difluoroethyl)-1H-indazol-4-yl)-N^4-ethyl-7H-pyrrolo[2,3-d]pyrimidine-2,4-diamine]: less than 50 nM; `CS(=O)(=O)CCNc1nc(Nc2cccc3c2cnn3S(=O)(=O)C2CC2)ncc1C(F)(F)F` [Example 138, N^2-(1-(cyclopropylsulfonyl)-1H-indazol-4-yl)-N^4-(2-(methylsulfonyl)ethyl)-5-(trifluoromethyl)pyrimidine-2,4-diamine]: less than 50 nM; `CNc1nc(Nc2cccc3c2cnn3C(C)(C)C#N)ncc1C(F)(F)F` [Example 31, 2-methyl-2-(4-((4-(methylamino)-5-(trifluoromethyl)pyrimidin-2-yl)amino)-1H-indazol-1-yl)propanenitrile]: less than 50 nM.
Next, `CNc1nc(Nc2cccc3cnn(C)c23)ncc1C(F)(F)F` [Example 76, N4-methyl-N2-(1-methyl-1-indazol-7-yl)-5-(trifluoromethyl)pyrimidine-2,4-diamine]: no less than 200 nM; `CNc1nc(Nc2ccc3c(Br)nn(C)c3c2)ncc1C(F)(F)F` [Example 10, N^2-(3-bromo-1-methyl-1H-indazol-6-yl)-N^4-methyl-5-(trifluoromethyl) pyrimidine-2,4-diamine]: less than 50 nM.
With `CNc1nc(Nc2c(C)ccc3c2cnn3C)ncc1C(F)(F)F` [Example 36, N2-(1,5-dimethyl-1H-indazol-4-yl)-N4-methyl-5-(trifluoromethyl)pyrimidine-2,4-diamine] the figure was 50 to 200 nM.
In turn, `COCCn1ncc2c(Nc3ncc(C(F)(F)F)c(NC(C)C)n3)cccc21` [Example 140, N^4-isopropyl-N^2-[1-(2-methoxyethyl)indazol-4-yl]-5-(trifluoromethyl)pyrimidine-2,4-diamine] came in with an IC50 of less than 50 nM.
Next, `CS(=O)(=O)CCn1ncc2c(Nc3ncc(C(F)(F)F)c(NC4CC4)n3)ccc(F)c21` [Example 177, N^4-cyclopropyl-N^2-[7-fluoro-1-(2-methylsulfonylethyl)indazol-4-yl]-5-(trifluoromethyl)pyrimidine-2,4-diamine]: less than 50 nM; `O=S(=O)(C1CC1)n1ncc2c(Nc3ncc(C(F)(F)F)c(NC4CC4)n3)cccc21` [Example 78, N4-cyclopropyl-N2-(1-(cyclopropylsulfonyl)-1H-indazol-4-yl)-5-(trifluoromethyl)pyrimidine-2,4-diamine]: less than 50 nM.
With `CNc1nc(Nc2cc3nn(C)cc3cc2C)ncc1C(F)(F)F` [Example 18, N2-(2,5-dimethyl-2H-indazol-6-yl)-N4-methyl-5-(trifluoromethyl)pyrimidine-2,4-diamine] the figure was 50 to 200 nM; with `CNc1nc(Nc2cccc3c2cnn3C)ncc1C(F)(F)F` [Example 29, N4-methyl-N2-(1-methyl-1H-indazol-4-yl)-5-(trifluoromethyl)pyrimidine-2,4-diamine], less than 50 nM.
Next, `Cn1ncc2c(Nc3ncc(Cl)c(NC4CC4)n3)cccc21` [Example 71, 5-chloro-N4-cyclopropyl-N2-(1-methyl-1H-indazol-4-yl)pyrimidine-2,4-diamine]: less than 50 nM; `FC(F)(F)c1cnc(Nc2cccc3c2cnn3CC2COC2)nc1NC1CC1` [Example 197, N^4-cyclopropyl-N^2-(1-(oxetan-3-ylmethyl)-1H-indazol-4-yl)-5-(trifluoromethyl) pyrimidine-2,4-diamine]: 50 to 200 nM; `CS(=O)(=O)CCn1ncc2c(Nc3ncc(C(F)(F)F)c(NC4CC4)n3)cccc21` [Example 139, N^4-cyclopropyl-N^2-(1-(2-(methylsulfonyl)ethyl)-1H-indazol-4-yl)-5-(trifluoromethyl)pyrimidine-2,4-diamine]: less than 50 nM.
`O=S(=O)(C1CC1)n1ncc2c(Nc3ncc(C(F)(F)F)c(C4CC4)n3)cccc21` [Example 132, N-(4-cyclopropyl-5-(trifluoromethyl)pyrimidin-2-yl)-1-(cyclopropylsulfonyl)-1H-indazol-4-amine]: the IC50 was 50 to 200 nM.
With `CNc1nc(Nc2cc(Cl)cc3c2cnn3CC#N)ncc1C(F)(F)F` [Example 92, 2-(6-chloro-4-((4-(methylamino)-5-(trifluoromethyl)pyrimidin-2-yl)amino)-1H-indazol-1-yl)acetonitrile] the figure was less than 50 nM; with `CNc1nc(Nc2cc(C)cc3c2cnn3C)ncc1C(F)(F)F` [Example 45, N2-(1,6-dimethyl-1H-indazol-4-yl)-N4-methyl-5-(trifluoromethyl)pyrimidine-2,4-diamine], less than 50 nM; with `O=S(=O)(CCn1ncc2c(Nc3ncc(C(F)(F)F)c(NC4CC4)n3)cccc21)C1CC1` [Example 170, N^4-cyclopropyl-N^2-(1-(2-(cyclopropylsulfonyl)ethyl)-1H-indazol-4-yl)-5-(trifluoromethyl)pyrimidine-2,4-diamine], less than 50 nM.
Next, `CNc1nc(Nc2cccc3c2cnn3CC#N)ncc1C(F)(F)F` [Example 30, 2-(4-((4-(methylamino)-5-(trifluoromethyl)pyrimidin-2-yl)amino)-1H-indazol-1-yl)acetonitrile]: less than 50 nM.
With `O=S(=O)(C1CC1)n1ncc2c(Nc3ncc(C(F)(F)F)c(NC4CC4)n3)ccnc21` [Example 159, N^4-cyclopropyl-N^2-(1-(cyclopropylsulfonyl)-1H-pyrazolo[3,4-b]pyridin-4-yl)-5-(trifluoromethyl)pyrimidine-2,4-diamine] the figure was less than 50 nM; with `CS(=O)(=O)CCn1ncc2c(Nc3ncc(C(F)(F)F)c(NCC4CC4)n3)cccc21` [Example 187, N^4-(cyclopropylmethyl)-N^2-(1-(2-(methylsulfonyl)ethyl)-1H-indazol-4-yl)-5-(trifluoromethyl)pyrimidine-2,4-diamine], less than 50 nM.
`CCNc1nc(Nc2cccc3c2cnn3CC(C)(C)O)ncc1C(F)(F)F` [Example 164, 1-[4-[[4-(ethylamino)-5-(trifluoromethyl)pyrimidin-2-yl]amino]indazol-1-yl]-2-methyl-propan-2-ol]: the IC50 was less than 50 nM.
`CNc1nc(Nc2cc(C#N)cc3c2cnn3C)ncc1C(F)(F)F` [Example 44, 1-methyl-4-((4-(methylamino)-5-(trifluoromethyl)pyrimidin-2-yl)amino)-1H-indazole-6-carbonitrile] displayed a half-maximal inhibitory concentration (IC50) of less than 50 nM.
Consider `CNc1nc(Nc2ccc(C3CCN(C)CC3)c3c2cnn3CC#N)ncc1C(F)(F)F` [Example 109, 2-(4-((4-(methylamino)-5-(trifluoromethyl)pyrimidin-2-yl)amino)-7-(1-methylpiperidin-4-yl)-1H-indazol-1-yl)acetonitrile], for which the half-inhibitory concentration (IC50) was less than 50 nM.
With `Cc1ccc(Nc2ncc(C(F)(F)F)c(NC3CC3)n2)c2cnn(CCS(C)(=O)=O)c12` [Example 174, N4-cyclopropyl-N2-(7-methyl-1-(2-(methylsulfonyl)ethyl)-1H-indazol-4-yl)-5-(trifluoromethyl)pyrimidine-2,4-diamine] the figure was less than 50 nM.
Next, `C[C@@]1(n2ncc3c(Nc4ncc(C(F)(F)F)c(NC5CC5)n4)cccc32)CCOC1=O` [Example 166, (R)-3-(4-((4-(cyclopropylamino)-5-(trifluoromethyl)pyrimidin-2-yl)amino)-1H-indazol-1-yl)-3-methyldihydrofuran-2(3H)-one]: less than 50 nM; `CC(C)(O)Cn1ncc2c(Nc3ncc(C(F)F)c(NC4CC4)n3)cccc21` [Example 173, 1-[4-[[4-(cyclopropylamino)-5-(difluoromethyl)pyrimidin-2-yl]amino]indazol-1-yl]-2-methyl-propan-2-ol]: less than 50 nM.
